Patent US20090170897A1, “Method of Treating Neuropathic Pain” (Pfizer, Inc., priority 2004, published 2009)

Experiments:
Format in all cases: in vivo
[1] = test system: Chronic Constriction Injury (CCI) rat model of neuropathic pain; test: CCI-induced static allodynia (von Frey hairs, PWT)
Method: (§1) Male Sprague Dawley rats weighing 150-400 g obtained from Charles River (Manston, Kent, UK.) were housed in groups of 3. All animals were kept under a 12 h light/dark cycle (lights on at 07 h 00 min) with food and water ad libitum. All experiments were carried out by an observer blind to the treatments and in accordance with the Home Office Animals (Scientific Procedures) Act 1986.
The CCI of sciatic nerve was performed as previously described by Bennett and Xie (Bennett G J, Xie Y K. A peripheral mononeuropathy in rat that produces disorders of pain sensation like those seen in man. Pain:33:87-107, 1988). Animals were anaesthetised with a 2% isofluorane/O2 mixture. The right hind thigh was shaved and swabbed with 1% iodine. Animals were then transferred to a homeothermic blanket for the duration of the procedure and anaesthesia maintained during surgery via a nose cone. The skin was cut along the line of the thighbone. The common sciatic nerve was exposed at the middle of the thigh by blunt dissection through biceps femoris. About 7 mm of nerve was freed proximal to the sciatic trifurcation, by inserting forceps under the nerve and the nerve gently lifted out of the thigh. Suture was pulled under the nerve using forceps and tied in a simple knot until slight resistance was felt and then double knotted. The procedure was repeated until 4 ligatures (4-0 silk) were tied loosely around the nerve with approx 1 mm spacing. The incision was closed in layers.
(§2) Animals were habituated to wire bottom test cages prior to the assessment of allodynia. Static allodynia was evaluated by application of von Frey hairs (Stoelting, Wood Dale, Ill., USA.) in ascending order of force (0.6, 1, 1.4, 2, 4, 6, 8, 10, 15 and 26 grams) to the plantar surface of hind paws. Each von Frey hair was applied to the paw for a maximum of 6 sec, or until a withdrawal response occurred. Once a withdrawal response to a von Frey hair was established, the paw was re-tested, starting with the filament below the one that produced a withdrawal, and subsequently with the remaining filaments in descending force sequence until no withdrawal occurred. The highest force of 26 g lifted the paw as well as eliciting a response, thus represented the cut off point. Each animal had both hind paws tested in this manner. The lowest amount of force required to elicit a response was recorded as paw withdrawal threshold (PWT) in grams. Static allodynia was defined as present if animals responded to a stimulus of, or less than, 4 g, which is innocuous in naive rats (Field M J, Bramwell S, Hughes J, Singh L. Detection of static and dynamic components of mechanical allodynia in rat models of neuropathic pain: are they signalled by distinct primary sensory neurones? Pain, 1999; 83:303-11).
(§3) All the experiments were conducted blind. Static allodynia was expressed as median [LQ; UQ] and analysed by Mann Whitney U test. Dynamic allodynia and thermal hyperalgesia were expressed as arithmetic mean±SEM and analysed by ANOVA.

[2] = test system: Streptozocin (STZ)-induced diabetes neuropathy in the rat; test: STZ-induced static allodynia (von Frey hairs, PWT)
Method: as §1
Diabetes was induced by a single intraperitoneal injection of streptozotocin (50 mg/kg) freshly dissolved in 0.9% sterile saline. Streptozotocin injection induces a reproducible mechanical allodynia within 3 weeks, lasting for at least 7 weeks (Chen and Pan, (Chen S R and Pan H L. Hypersensitivity of Spinothalamic Tract Neurons Associated With Diabetic Neuropathic Pain in Rats. J Neurophysiol 87: 2726-2733, 2002).
as §2, §3

[3] = test system: Carrageenan-induced thermal hyperalgesia (CITH) in the rat; test: Carrageenan-induced thermal hyperalgesia (CITH), rat plantar test; conditions: 25 mg/kg PO
Method: as §1
Thermal hyperalgesia was assessed using the rat plantar test (Ugo Basile, Comerio, Italy), according to a method modified by Hargreaves et al. (1988). Briefly, rats were habituated to the apparatus that consisted of three individual Perspex boxes on a glass table. A mobile radiant heat source was located under the table and focused onto the desired paw. Paw withdrawal latencies (PWLs) were recorded three times for both hind paws of each animal, the mean of which represented baseline for left and right hind paws. The apparatus was calibrated to give a PWL of approximately 10 s in naïve rats. To prevent tissue damage of the plantar zone, a 22.5 sec cut-off was observed. Lambda carrageenan was injected intraplantarly (100 μl, 20 mg/ml) the right hind paw and baseline recordings of PWT were taken 2 hr post administration.
as §3

CC(=O)N(C1CC1)C1CC(C)N(C(=O)c2cccnc2)c2ccccc21 (stereo not shown) [N-cyclopropyl-N-[2-methyl-1-(pyridine-3-carbonyl)-1,2,3,4-tetrahydro-quinolin-4-yl]-acetamide]
time of peak effect, static allodynia ([1]; 25 mg/kg PO (MED), post administration): 1 h | effect on maintenance of CCI-induced static allodynia ([1]; 12.5, 25 and 50 mg/kg PO, from 14 days post surgery): reversed the maintenance of CCI-induced static and dynamic allodynia in a dose dependent manner | MED, static allodynia ([1]; PO): 25 mg/kg | static allodynia reversal relative to gabapentin ([1]; highest dose (50 mg/kg PO) vs gabapentin 100 mg/kg PO): curve profile comparable to gabapentin | onset of anti-allodynic effect, static allodynia ([1]; highest dose (50 mg/kg PO), post dose, p<0.01 vs vehicle): 30 min | duration of biologically relevant effect, STZ static allodynia ([2]; 25 mg/kg PO): up to 2 hr | time of peak effect, STZ static allodynia ([2]; 25 mg/kg PO, post compound dose): 1 h | effect on maintenance of STZ-induced static allodynia ([2]; compound 25 mg/kg PO, gabapentin 100 mg/kg PO (positive control)): reversed | effect in the contralateral paw [3]: no effect | effect on maintenance of thermal hyperalgesia (ipsilateral paw) [3]: completely reversed | paw withdrawal latency at peak effect (mean±SEM) ([3]; 2 h post administration, ipsilateral paw, vehicle 3.9±0.2): 10.1±0.6 | time of peak effect, thermal hyperalgesia ([3]; post administration): 2 h | duration of anti-hyperalgesic effect ([3]; post compound administration): 5 h
